5 molecules from ChEMBL document CHEMBL2069169, “Novel triazines as potent and selective phosphodiesterase 10A inhibitors” (Bioorg Med Chem Lett, 2012) can be followed below.

Active and inactive are the calls of the source. The rule behind the calls is not given here. Some results are limits rather than exact numbers.

The species entered for data set [1] is Homo sapiens. Nature of the data set: Selectivity ratio of IC50 PDE4 to IC50 for human recombinant PDE10A.
For data set [2], the species on record is Homo sapiens. Nature of the data set: Selectivity ratio of IC50 PDE5 to IC50 for human recombinant PDE10A.
For another data set, the target named is Phosphodiesterase 3 (Homo sapiens, UniProt Q14432+Q13370). Nature of the data set: Inhibition of PDE3. Type of data set: protein assay.
A further data set has as its target Phosphodiesterase 4 (Homo sapiens, UniProt P27815+Q08499+Q07343+Q08493). The data set is described as follows: Inhibition of PDE4. In kind it is protein assay.
For data set [3], the species on record is Homo sapiens. Nature of the data set: Selectivity ratio of IC50 PDE2 to IC50 for human recombinant PDE10A.
A further data set concerns the target Phosphodiesterase 6. Nature of the data set: Inhibition of PDE6. Type of data set: protein assay, Homo sapiens.
For data set [4], the species on record is Homo sapiens. The data set is described as follows: Selectivity ratio of IC50 PDE6 to IC50 for human recombinant PDE10A.
The target of data set [5] is cGMP-specific 3',5'-cyclic phosphodiesterase (Canis lupus familiaris, UniProt O77746). The data set is described as follows: Inhibition of PDE5. More on the design: species or system Homo sapiens.
The species named for data set [6] is Homo sapiens. The data set is described as follows: Selectivity ratio of IC50 PDE3 to IC50 for human recombinant PDE10A.
Data set [7] has as its system Rattus norvegicus. Nature of the data set: Antipsychotic activity in po dosed rat assessed as reduction of MK801-induced stereotyped sniffing. In kind it is functional. More on the design: Activity: scale not given: the % may be the effect or the level left. The settings on record: for minimal effective dose: Rattus norvegicus, po, read-out: MED.
In data set [8] the test system is Rattus norvegicus. Nature of the data set: Antipsychotic activity in po dosed rat assessed as reduction of MK801-induced hyperactivity. In kind it is functional. Also noted: Activity: scale not given: the % may be the effect or the level left. The note with it: for minimal effective dose: Rattus norvegicus, po, read-out: MED.
Data set [9] can be described thus: AUC in rat brain at 2 mg/kg, iv and 10 mg/kg, po. Type of data set: ADME, organism-based.
Data set [10] can be described thus: Clearance in rat at 2 mg/kg, iv and 10 mg/kg, po. In kind it is ADME, organism-based. The note with it: in vivo.
Data set [11] can be described thus: AUC in rat plasma at 2 mg/kg, iv and 10 mg/kg, po. In kind it is ADME, organism-based.
A short description of data set [12]: Volume of distribution at steady state in rat at 2 mg/kg, iv and 10 mg/kg, po. The note with it: in vivo, read-out: Vdss. Type of data set: ADME, organism-based.
Data set [13] can be described thus: Elimination half life in rat at 2 mg/kg, iv and 10 mg/kg, po. In kind it is ADME, organism-based. The settings on record: in vivo, read-out: beta t1/2 (converted).
The nature of data set [14]: Oral bioavailability in rat at 10 mg/kg. Type of data set: ADME, organism-based. The settings on record: in vivo.
Data set [15] deals with Rattus norvegicus. The data set is described as follows: Antipsychotic activity in Sprague-Dawley rat assessed as reduction of conditioned avoidance response at 0.17 mg/kg, po. In kind it is functional, organism-based. More on the design: dose 0.17 mg/kg.
Data set [16] has as its system Rattus norvegicus. The data set is described as follows: Antipsychotic activity in po dosed Sprague-Dawley rat assessed as reduction of conditioned avoidance response. In kind it is functional.
For data set [17], the species on record is Homo sapiens. Nature of the data set: Selectivity ratio of IC50 PDE11 to IC50 for human recombinant PDE10A.
For data set [18], the species on record is Homo sapiens. Nature of the data set: Selectivity ratio of IC50 PDE8 to IC50 for human recombinant PDE10A.
The species named for data set [19] is Homo sapiens. The data set is described as follows: Selectivity ratio of IC50 PDE1 to IC50 for human recombinant PDE10A.
The species named for data set [20] is Homo sapiens. Nature of the data set: Selectivity ratio of IC50 PDE7 to IC50 for human recombinant PDE10A.
Data set [21] addresses cAMP and cAMP-inhibited cGMP 3',5'-cyclic phosphodiesterase 10A (Homo sapiens, UniProt Q9Y233). The data set is described as follows: Inhibition of human recombinant PDE10A-catalyzed cAMP hydrolysis.
The species named for data set [22] is Homo sapiens. The data set is described as follows: Selectivity ratio of IC50 PDE9 to IC50 for human recombinant PDE10A.
Data set [23] concerns the target cGMP-dependent 3',5'-cyclic phosphodiesterase (Homo sapiens, UniProt O00408). Nature of the data set: Inhibition of PDE2.

As usually defined, the IC50 is the concentration that gives 50% inhibition. Usually AUC stands for concentration integrated over time. Usually bioavailability stands for dose-corrected exposure relative to a reference, in per cent.

cAMP and cAMP-inhibited cGMP 3',5'-cyclic phosphodiesterase 10A, sequence (Q9Y233 whole entry): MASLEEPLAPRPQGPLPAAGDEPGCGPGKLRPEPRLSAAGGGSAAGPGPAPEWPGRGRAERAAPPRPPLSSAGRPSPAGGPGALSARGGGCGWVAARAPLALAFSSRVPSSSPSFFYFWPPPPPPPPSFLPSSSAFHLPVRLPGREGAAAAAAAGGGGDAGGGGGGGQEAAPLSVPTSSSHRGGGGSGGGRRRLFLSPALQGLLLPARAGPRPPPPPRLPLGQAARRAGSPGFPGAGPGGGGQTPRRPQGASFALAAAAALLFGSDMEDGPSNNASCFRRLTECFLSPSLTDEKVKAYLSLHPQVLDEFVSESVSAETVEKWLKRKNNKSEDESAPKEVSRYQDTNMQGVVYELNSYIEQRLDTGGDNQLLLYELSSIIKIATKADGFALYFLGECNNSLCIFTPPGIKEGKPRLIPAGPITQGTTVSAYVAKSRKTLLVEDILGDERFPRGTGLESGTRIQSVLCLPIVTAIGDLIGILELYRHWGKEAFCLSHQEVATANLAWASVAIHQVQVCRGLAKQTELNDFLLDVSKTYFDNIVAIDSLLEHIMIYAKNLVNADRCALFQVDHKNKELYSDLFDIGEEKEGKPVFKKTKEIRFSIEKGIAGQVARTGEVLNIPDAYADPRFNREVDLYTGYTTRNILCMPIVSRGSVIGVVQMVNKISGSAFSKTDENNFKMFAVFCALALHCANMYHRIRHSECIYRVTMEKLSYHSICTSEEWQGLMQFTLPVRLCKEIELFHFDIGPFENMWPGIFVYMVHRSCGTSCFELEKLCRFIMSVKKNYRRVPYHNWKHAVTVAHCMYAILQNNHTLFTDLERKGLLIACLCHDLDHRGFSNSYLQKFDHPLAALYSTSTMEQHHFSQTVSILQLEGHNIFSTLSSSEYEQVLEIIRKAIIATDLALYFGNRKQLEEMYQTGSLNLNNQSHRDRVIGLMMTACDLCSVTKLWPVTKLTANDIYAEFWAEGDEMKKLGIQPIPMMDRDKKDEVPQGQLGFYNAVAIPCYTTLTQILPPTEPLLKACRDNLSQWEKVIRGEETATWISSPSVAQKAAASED
cGMP-dependent 3',5'-cyclic phosphodiesterase, sequence (O00408 whole entry): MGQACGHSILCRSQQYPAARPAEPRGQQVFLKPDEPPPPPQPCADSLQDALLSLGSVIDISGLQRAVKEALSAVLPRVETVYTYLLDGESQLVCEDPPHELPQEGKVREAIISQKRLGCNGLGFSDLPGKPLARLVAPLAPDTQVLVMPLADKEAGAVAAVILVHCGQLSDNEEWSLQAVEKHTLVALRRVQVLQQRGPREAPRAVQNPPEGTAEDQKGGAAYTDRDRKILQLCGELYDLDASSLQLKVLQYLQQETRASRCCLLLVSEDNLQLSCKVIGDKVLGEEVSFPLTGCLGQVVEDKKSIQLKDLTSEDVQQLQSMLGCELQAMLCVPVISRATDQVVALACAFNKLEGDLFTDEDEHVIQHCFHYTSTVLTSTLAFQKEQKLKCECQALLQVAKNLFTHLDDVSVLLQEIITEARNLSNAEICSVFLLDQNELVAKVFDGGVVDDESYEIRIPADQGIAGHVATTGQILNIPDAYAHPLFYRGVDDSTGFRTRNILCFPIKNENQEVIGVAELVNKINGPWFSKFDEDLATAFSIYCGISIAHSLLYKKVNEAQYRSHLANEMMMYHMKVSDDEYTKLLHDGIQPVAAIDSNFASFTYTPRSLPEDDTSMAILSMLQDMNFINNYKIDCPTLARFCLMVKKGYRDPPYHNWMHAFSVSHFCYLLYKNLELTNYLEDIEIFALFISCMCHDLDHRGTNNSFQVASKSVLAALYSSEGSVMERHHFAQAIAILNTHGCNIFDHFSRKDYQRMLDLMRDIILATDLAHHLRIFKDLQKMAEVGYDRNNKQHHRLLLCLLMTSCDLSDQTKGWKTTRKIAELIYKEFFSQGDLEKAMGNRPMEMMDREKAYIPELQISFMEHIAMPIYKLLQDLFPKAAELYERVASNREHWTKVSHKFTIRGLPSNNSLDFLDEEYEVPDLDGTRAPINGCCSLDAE

Take `COc1ccnc2c1nnc1c(C)nc(-c3ccncc3C)n12`: the Ratio IC50 in the data set filed under Homo sapiens [1], in the data set listed under Homo sapiens [2], in the data set listed under Homo sapiens [3], in the data set filed under Homo sapiens [4] and in the data set filed under Homo sapiens [6] was more than 100 in each case. Moreover, the IC50 is more than 10 µM against Phosphodiesterase 3, 3.68 µM on Phosphodiesterase 4, more than 10 µM on Phosphodiesterase 6 and more than 10 µM in data set [5]. The Activity came out at 34.1% in the data set on Rattus norvegicus [7] and 55.4% with Rattus norvegicus [8]. The minimal effective dose with Rattus norvegicus [7] and with Rattus norvegicus [8] was 2.5 mg/kg throughout.
With `COc1cc(OC)c2nnc3c(C)nc(-c4ccncc4C)n3c2c1`, the AUC was 2780 ng·h/mL in data set [9] and 18700 ng·h/mL in [11]. For the same molecule, the IC50 is more than 10 µM against Phosphodiesterase 3, more than 10 µM at Phosphodiesterase 4, 1.24 µM at Phosphodiesterase 6 and 4.95 µM in [5]. The clearance in [10] amounted to 13 mL/min/kg. For the same molecule, in data set [12], the Vd was 0.4 L/kg. Besides, in [13], the half-life was 54 min. Further, the Ratio IC50 in the data set filed under Homo sapiens [3] came out at 300. In data set [14], this molecule had a bioavailability of 100%. For the same molecule, the Activity in the data set with Rattus norvegicus [7] was 57.4%; in the data set on Rattus norvegicus [8], 71.7%. Further, the minimal effective dose in the data set on Rattus norvegicus [7] and in the data set with Rattus norvegicus [8] was 0.5 mg/kg in each case.
Take `COc1cc(C(F)(F)F)cc2c1nnc1c(C)nc(-c3ccncc3C)n12`: the values for the AUC in [9] and in [11] were 622 ng·h/mL and 1600 ng·h/mL, respectively. Also, the IC50 on Phosphodiesterase 3 is more than 10 µM; against Phosphodiesterase 4, more than 10 µM; against Phosphodiesterase 6, 1.79 µM; in data set [5], 2.29 µM. In [10], this molecule displayed a clearance of 5 mL/min/kg. Moreover, in the data set on Rattus norvegicus [15], the result was Active. For the same molecule, the Vd in [12] stood at 1.3 L/kg. For the same molecule, the half-life in data set [13] was 270 min. Moreover, in the data set with Rattus norvegicus [16], the ID30 turned out to be 0.123 mg/kg. Besides, in the data set on Rattus norvegicus [16] (Rattus norvegicus, Sprague-Dawley, po, read-out: ID50 (the source's name)), the ED50 was 0.204 mg/kg. The same molecule showed a bioavailability in data set [14] of 53%. Besides, the Activity in the data set with Rattus norvegicus [7] was 18.4%; in the data set with Rattus norvegicus [8], 40.5%. The minimal effective dose in the data set on Rattus norvegicus [7] and with Rattus norvegicus [8] was 0.1 mg/kg throughout.
For `COc1cc(OC)c2nnc3c(C)nc(-c4cnccc4C)n3c2c1`, the AUC in [9] stood at 3000 ng·h/mL; in data set [11], 8790 ng·h/mL. Besides, the IC50 on Phosphodiesterase 3 was more than 10 µM; at Phosphodiesterase 4, more than 10 µM; against Phosphodiesterase 6 it was 1.822 µM; in [5] it was 5.07 µM. In addition, the clearance in [10] was determined as 14 mL/min/kg. Besides, in data set [12], the Vd came to 0.5 L/kg. The half-life in data set [13] is 48 min. The molecule further returned a bioavailability in data set [14] of 100%. The Activity in the data set with Rattus norvegicus [7] was found to be 69.8%; in the data set on Rattus norvegicus [8], 79.9%. Also, the minimal effective dose in the data set with Rattus norvegicus [7] and with Rattus norvegicus [8] was 1 mg/kg in each case.
For the molecule `COc1ccnc2c1nnc1c(C)nc(-c3cccnc3C)n12`, the Ratio IC50 is more than 100 in the data set listed under Homo sapiens [1]; more than 100 in the data set filed under Homo sapiens [2]; more than 500 in the data set filed under Homo sapiens [17]; more than 500 in the data set listed under Homo sapiens [18]; more than 500 in the data set filed under Homo sapiens [19]; more than 100 in the data set listed under Homo sapiens [3]. Besides, the Ratio IC50 in the data set listed under Homo sapiens [20] was more than 500; in the data set filed under Homo sapiens [4], more than 100; in the data set listed under Homo sapiens [22] it was more than 500; in the data set listed under Homo sapiens [6], more than 100. The IC50 against Phosphodiesterase 3 is more than 10 µM; on Phosphodiesterase 4 it was 6.96 µM; in data set [21] it was 0.0124 µM; at Phosphodiesterase 6, more than 5 µM; in data set [23] it was 0.974 µM; in data set [5] it was more than 5 µM.
